According to patent US20020010333A1, “Use of xanthine derivatives for reducing the pathological hyperreactivity of eosinophilic granulocytes, novel xanthine compounds and process for their preparation” (Hoechst Aktiengesellschaft, priority 1994, published 2002):
≈ marks a conversion by molar mass, not a printed value. Read-outs that look alike come from different tables or passages of the source.

Legend:
[1] = tested on: ovalbumin-induced asthma attack; assay: Inhibition of the antigen-induced early-phase reaction (ovalbumin-induced bronchospasm, Konzett-Rössler) in the presensitized guinea pig; format: in vivo, albino guinea pigs; details: Cavia porcellus, iv, protected = asthma reaction reduced by at least 40% relative to control; for responders at 10 mg/kg: 10 mg/kg i.v. 15 minutes before antigen; for responders at 25 mg/kg: 25 mg/kg i.v. 15 minutes before antigen
Experimental: Albino guinea pigs of both sexes having a body weight of 180 to 220 g were sensitized on two successive days by subcutaneous administration of 1 mg of ovalbumin (0.1% strength dissolved in physiological saline solution) in each case. 20 days later, the experiment was carried out according to the method of Konzett and […] (Arch. exp. Path. und Pharmak. (1940) 195: 75). For this purpose, the animals were anesthetized with pentobarbital, artificially ventilated, treated with alcuronium chloride to exclude spontaneous respiration and divided into groups of 6 animals in each case. By means of intravenous administration of ovalbumin as an antigen in a dose of 1 mg/kg, a long-lasting asthma attack was induced as a result of an acute bronchospasm induced by mediators in the course of the asthmatic early reaction, the intensity of which was quantified by means of the contraction height in the thoracogram. The test preparations were likewise administered intravenously 15 minutes before antigen provocation. Instead of this, the animals of the control group received pure 0.9% strength saline solution. To assess the action of the preparation, the number of animals of the respective collective in which the asthma reaction was reduced by at least 40% relative to the control animals was determined.

[2] = tested on: PAF-induced contraction of isolated lung strips; assay: Anticonstrictive action against PAF-induced contraction of isolated lung strips; design: species or system albino guinea pigs; details: Cavia porcellus; guinea pig lung strips, PAF 10^−9 g/ml, n=6; read-out: Anticonstrictive action (IC50) PAT lung
Source text: (§1) The inhibitory action of the compounds of formula I on the proinflammatory early-phase mediators histamine, PAF and leukotriene D4 (LTD4) was investigated on isolated segments of the respiratory tract organs of albino guinea pigs, the inhibition of the contractions which can be caused by these mediators being used as measurement parameters.
(§2) To carry out the experiment, freshly prepared organs of male animals were used in each case. The trachea was divided into its rings, of which 5 tracheal rings in each case were linked with silk thread to give a chain, suspended under a tension of 0.5 g in an organ bath containing Tyrode solution at 37° C. through which was bubbled 95% O2/5% CO2, and contracted by addition of histamine dihydrochloride (bath concentration: 3×10^−7 g/ml) in the absence (control experiment) or in the presence of the test substances.
(§3) The lungs were cut longitudinally into 2 to 3 strips, using which the process as described above was carried out. The tension, however, was 1 g and the contraction was induced by PAF or LTD4 at a bath concentration of 10^−9 or 10^−8 g/mi.
(§4) Each experiment comprised the parallel investigation of 6 organ preparations (n=6).
(§5) The assessment of the action of the preparation was carried out with the aid of the IC50 values, which represent that concentration in μg/ml at which the organ contraction produced in the control experiment was reduced by half.

[3] = tested on: histamine-induced contraction of isolated trachea; assay: Anticonstrictive action against histamine-induced contraction of isolated tracheal ring chains; design: species or system albino guinea pigs; details: Cavia porcellus; guinea pig tracheal chain, histamine dihydrochloride 3×10^−7 g/ml, n=6
Source text: as §1, §2, §4, §5

[4] = tested on: LTD4-induced contraction of isolated lung strips; assay: Anticonstrictive action against LTD4-induced contraction of isolated lung strips; design: species or system albino guinea pigs; details: Cavia porcellus; guinea pig lung strips, LTD4 10^−8 g/ml, n=6
Source text: as §1, §2, §3, §4, §5

[5] = tested on: human eosinophilic granulocytes; assay: Inhibition of eosinophil activation by late-phase mediators, lucigenin-dependent chemiluminescence; format: cell-based; details: 0.5 h, test substance 100 μM, human eosinophils, CL over 30 minutes
Source text: The inhibitory action of the xanthines of formula I on the activation ability of human eosinophilic granulocytes by means of the late-phase mediators IL-5, GM-CSF, C5a and PAF was investigated with the aid of the lucigenin-dependent chemiluminescence (CL) reaction.
For this purpose, purified eosinophils were obtained from venous human blood according to known processes (Arch. Dermatol. Res. (1987) 279: 470-477 and J. Invest. Dermatol. (1986) 86: 523-528), pretreated with the test substances at the concentration 100 μM or with pure water (positive control (A)) at 37° C. for 10 minutes and then activated with IL-5 (10^2 U/ml), GM-CSF (10^3 U/ml), C5a (10^−7 M) or PAF (10^−6 M) or treated with water for the determination of the basal activity (B). The CL reaction was monitored over the course of 30 minutes measuring at 37° C. The residual activity of the cells pretreated with the test substances was calculated according to the following formula in percent of that of the positive control: [formula]
CLX describes the activity after stimulation of the cells pretreated with the xanthines,
CLA describes the activity after stimulation of the cells pretreated with water and
CLB describes the basal activity of unstimulated cells pretreated with water.

[6] = tested on: eosinophilic granulocytes infiltrating the peritoneal space; assay: Antigen-induced late-phase reaction: infiltration of eosinophilic granulocytes into the peritoneal space (in vivo); design: species or system guinea pigs; details: 80 mg/kg daily oral for 15 weeks, human serum antigen i.p. weekly, peritoneal lavage 48 hours later; control animals 42.2 5.8%; p<0.01
Experimental: (§6) In a chronic long-term experiment on guinea pigs provoked with human serum antigen, the inhibitory action of the compounds of the formula I on the pathologically raised chemotactic infiltration of eosinophilic granulocytes into the peritoneal space (in vivo) and their functional state (ex vivo) was investigated. The animals of the preparation group (n=6) were treated with the test substance at a daily oral dose of 80 mg/kg for 15 weeks, while the animals of the control group (n=6) received the vehicle (carboxymethylcellulose). After the third week of treatment, all 12 animals were provoked by weekly intraperitoneal administration of 1 ml of human serum antigen and 48 hours later in each case subjected to a peritoneal lavage with 50 ml of 5% strength glucose solution in which the number of infiltrated eosinophils and, after their isolation on discontinuous Percoll density gradients (purity >95%; V ability >98%), the reactivity to PAF and C5a were determined in a comparison between the two animal collectives by flow cytometry with the aid of actin polymerization and by means of the Boyden chamber technique.

[7] = tested on: eosinophilic granulocytes; assay: Antigen-induced late-phase reaction: ex vivo chemotactic migration of eosinophils (Boyden chamber technique); format: in vivo, guinea pigs; details: eosinophils of animals treated with 80 mg/kg daily oral, compared with control animals, p<0.05
Experimental: as §6

[8] = tested on: eosinophilic granulocytes; assay: Antigen-induced late-phase reaction: ex vivo actin polymerization of eosinophils (flow cytometry); format: in vivo, guinea pigs; details: PAF 10 nM, eosinophils of animals treated with 80 mg/kg daily oral
Experimental: as §6

[9] = read-out: Protected animals after i.v. administration, % proportion
[10] = read-out: Protected animals after i.v. administration, number (converted)
[11] = C5a 10^−7 M, read-out: Residual activity in % of the positive control A after stimulation with C5a
[12] = GM-CSF 10^3 U/ml, read-out: Residual activity in % of the positive control A after stimulation with GM-CSF
[13] = IL-5 10^2 U/ml, read-out: Residual activity in % of the positive control A after stimulation with IL-5
[14] = PAF 10^−6 M, read-out: Residual activity in % of the positive control A after stimulation with PAF

| melting point [°C] | IC50 [2] [µg/mL] | IC50 [3] [µg/mL] | IC50 [4] [µg/mL] | SMILES | responders at 10 mg/kg [1, 9] [%] | responders at 10 mg/kg [1, 10] [%] | responders at 25 mg/kg [1, 9] [%] | responders at 25 mg/kg [1, 10] [%] | activity at 100 µM [5, 11] [%] | activity at 100 µM [5, 12] [%] | activity at 100 µM [5, 13] [%] | activity at 100 µM [5, 14] [%] | Number of eosinophils which migrated into the peritoneal space [6] [%] | Chemotactic migration of eosinophils induced by C5a [7] | Chemotactic migration of eosinophils induced by PAF [7] | Initial phase (<10s) of actin polymerization induced by PAF [8] |
| --- | --- | --- | --- | --- | --- | --- | --- | --- | --- | --- | --- | --- | --- | --- | --- | --- |
| 215 to 217 |  |  |  | Cn1c(=O)n(CC(C)(C)O)c(=O)c2[nH]cnc21 [Example 1, 1-(2-Hydroxy-2-methylpropyl)-3-methylxanthine] |  |  |  |  |  |  |  |  |  |  |  |  |
|  |  |  |  | CCn1c(=O)n(CC(C)(C)O)c(=O)c2[nH]cnc21 [Example 2, 3-Ethyl-1-(2-hydroxy-2-methylpropyl)xanthine] | 33 | 33.3 | 67 | 66.7 |  |  |  |  |  |  |  |  |
| 203 to 205 |  |  |  | Cn1c(=O)n(CCC(C)(C)O)c(=O)c2[nH]cnc21 [Example 3, 1-(3-Hydroxy-3-methylbutyl)-3-methylxanthine] |  |  |  |  |  |  |  |  |  |  |  |  |
| 241 to 243 | 1 to 3 (≈ 3.76 to 11.3 µM) | 10 (≈ 37.6 µM) |  | CCn1c(=O)n(CCC(C)(C)O)c(=O)c2[nH]cnc21 [Example 4, 3-Ethyl-1-(3-hydroxy-3-methylbutyl)xanthine] | 17 | 16.7 | 50 | 50 |  |  |  |  |  |  |  |  |
| 188 to 189 | 3 (≈ 11.3 µM) | 30 (≈ 113 µM) | 10 (≈ 37.6 µM) | Cn1c(=O)n(CCCC(C)(C)O)c(=O)c2[nH]cnc21 [Example 5, 1-(4-hydroxy-4-methylpentyl)-3-methylxanthine] |  |  |  |  |  |  |  |  |  |  |  |  |
| 214 to 216 | 3 (≈ 10.7 µM) | 30 (≈ 107 µM) | 1 to 3 (≈ 3.57 to 10.7 µM) | CCn1c(=O)n(CCCC(C)(C)O)c(=O)c2[nH]cnc21 [Example 6, 3-Ethyl-1-(4-hydroxy-4-methylpentyl)xanthine] |  |  |  |  |  |  |  |  |  |  |  |  |
| 192 to 193 | 10 to 30 (≈ 35.7 to 107 µM) | 10 to 30 (≈ 35.7 to 107 µM) | 10 to 30 (≈ 35.7 to 107 µM) | Cn1c(=O)n(CCCCC(C)(C)O)c(=O)c2[nH]cnc21 [Example 7, 1-(5-Hydroxy-5-methylhexyl)-3-methylxanthine] | 33 | 33.3 | 80 | 80 | 19 | 63 | 42 | 17 | 34.9 | significant reduction | significant reduction | significantly decreased |
| 181 to 182 | 6 (≈ 20.2 µM) | 10 to 30 (≈ 33.7 to 101 µM) | 10 (≈ 33.7 µM) | Cn1c(=O)n(CCCCC(C)(O)CO)c(=O)c2[nH]cnc21 (stereo not shown) [Example 8, 1-(5,6-Dihydroxy-5-methylhexyl)-3-methylxanthine] | 50 | 50 | 50 | 50 |  |  |  |  |  |  |  |  |
| 169 to 170 | 10 (≈ 34 µM) | 10 to 30 (≈ 34 to 102 µM) | 10 to 30 (≈ 34 to 102 µM) | CCC(C)(O)CCCCn1c(=O)c2[nH]cnc2n(C)c1=O (stereo not shown) [Example 9, 1-(5-Hydroxy-5-methylheptyl)-3-methylxanthine] | 67 | 66.7 | 83 | 83.3 |  |  |  |  |  |  |  |  |
| 180 to 182 |  |  |  | CCn1c(=O)n(CCCCC(C)(C)O)c(=O)c2[nH]cnc21 [Example 10, 3-Ethyl-1-(5-hydroxy-5-methylhexyl)xanthine] |  |  |  |  |  |  |  |  |  |  |  |  |
| 165 to 166 |  |  |  | CCn1c(=O)n(CCCCC(C)(O)CC)c(=O)c2[nH]cnc21 (stereo not shown) [Example 11, 3-Ethyl-1-(5-hydroxy-5-methylheptyl)xanthine] |  |  |  |  |  |  |  |  |  |  |  |  |
| 166 to 167 | 3 to 6 (≈ 10.2 to 20.4 µM) | 3 to 10 (≈ 10.2 to 34 µM) | 6 to 10 (≈ 20.4 to 34 µM) | Cn1c(=O)n(CCCCCC(C)(C)O)c(=O)c2[nH]cnc21 [Example 12, 1-(6-Hydroxy-6-methylheptyl)-3-methylxanthine] | 50 | 50 | 67 | 66.7 |  |  |  |  |  |  |  |  |
| 163 to 165 | 1 (≈ 3.24 µM) | 10 to 30 (≈ 32.4 to 97.3 µM) |  | CCn1c(=O)n(CCCCCC(C)(C)O)c(=O)c2[nH]cnc21 [Example 13, 3-Ethyl-1-(6-hydroxy-6-methylheptyl)xanthine] |  |  |  |  |  |  |  |  |  |  |  |  |
|  | 3 to 6 (≈ 8.87 to 17.7 µM) | 60 (≈ 177 µM) | 10 to 30 (≈ 29.6 to 88.7 µM) | CCOCn1cnc2c1c(=O)n(CCCCC(C)(C)O)c(=O)n2C [Torbafylline, 7-ethoxymethyl-1-(5-hydroxy-5-methylhexyl)-3-methylxanthine, reference compound] | 0 | 0 | 0 | 0 | 51 | 125 | 58 | 58 |  |  |  |  |

| SMILES | melting point [°C] | IC50 [2] [µg/mL] | IC50 [3] [µg/mL] | IC50 [4] [µg/mL] | responders at 10 mg/kg [1, 9] [%] | responders at 10 mg/kg [1, 10] [%] | responders at 25 mg/kg [1, 9] [%] | responders at 25 mg/kg [1, 10] [%] | activity at 100 µM [5, 11] [%] | activity at 100 µM [5, 12] [%] | activity at 100 µM [5, 13] [%] | activity at 100 µM [5, 14] [%] | Number of eosinophils which migrated into the peritoneal space [6] [%] | Chemotactic migration of eosinophils induced by C5a [7] | Chemotactic migration of eosinophils induced by PAF [7] | Initial phase (<10s) of actin polymerization induced by PAF [8] |
| --- | --- | --- | --- | --- | --- | --- | --- | --- | --- | --- | --- | --- | --- | --- | --- | --- |
| CC(=O)CCCCn1c(=O)c2c(ncn2C)n(C)c1=O [Pentoxifylline, 3,7-dimethyl-1-(5-oxohexyl)xanthine, reference compound] |  | 3 (≈ 10.8 µM) | 30 to 60 (≈ 108 to 216 µM) | 30 to 60 (≈ 108 to 216 µM) | 17 | 16.7 | 33 | 33.3 | 56 | 70 | 57 | 45 |  |  |  |  |
